We go through 20 compounds from patent publication US7531553B2, “Heterocyclic compounds and methods of use” (Amgen Inc., priority 2003, dated 2009).

In this assay the test system is Human Umbilical Vein Endothelial cells. Put plainly: HUVEC proliferation assay (VEGF-stimulated). Type of assay: cell-based. Particulars: VEGF 50 ng/mL final, 72 h incubation, CyQuant dye, read-out: inhibited VEGF-stimulated HUVEC proliferation at a level (IC50). On the procedure:
Human Umbilical Vein Endothelial cells are purchased from Clonetics, Inc., as cryopreserved cells harvested from a pool of donors. These cells, at passage 1, are thawed and expanded in EBM-2 complete medium, until passage 2 or 3. The cells are trypsinized, washed in DMEM+10% FBS+antibiotics, and spun at 1000 rpm for 10 min. Prior to centrifugation of the cells, a small amount is collected for a cell count. After centrifugation, the medium is discarded, and the cells are resuspended in the appropriate volume of DMEM+10% FBS+antibiotics to achieve a concentration of 3×10^5 cells/mL. Another cell count is performed to confirm the cell concentration. The cells are diluted to 3×10^4 cells/mL in DMEM+10% FBS+antibiotics, and 100 μL of cells are added to a 96-well plate. The cells are incubated at 37° C. for 22 h.
Prior to the completion of the incubation period, compound dilutions are prepared. Five-point, five-fold serial dilutions are prepared in DMSO, at concentrations 400-fold greater than the final concentrations desired. 2.5 μL of each compound dilution are diluted further in a total of 1 mL DMEM+10% FBS+antibiotics (400× dilution). Medium containing 0.25% DMSO is also prepared for the 0 μM compound sample. After 22-h, the medium is removed from the cells, and 100 μL of each compound dilution is added. The cells are incubated at 37° C. for 2-3 h.
During the compound pre-incubation period, the growth factors are diluted to the appropriate concentrations. Solutions of DMEM+10% FBS+antibiotics, containing either VEGF or bFGF at the following concentrations: 50, 10, 2, 0.4, 0.08, and 0 ng/mL are prepared. For the compound-treated cells, solutions of VEGF at 550 ng/mL or bFGF at 220 ng/mL for 50 ng/mL or 20 ng/mL final concentrations, respectively, are prepared since 10 μL of each will be added to the cells (110 μL final volume). At the appropriate time after adding the compounds, the growth factors are added. VEGF is added to one set of plates, while bFGF is added to another set of plates. For the growth factor control curves, the media on wells B4-G6 of plates 1 and 2 are replaced with media containing VEGF or bFGF at the varying concentrations (50-0 ng/mL). The cells are incubated at 37° C. for an additional 72 h.
At the completion of the 72 h incubation period, the medium is removed, and the cells are washed twice with PBS. After the second wash with PBS, the plates are tapped gently to remove excess PBS, and the cells are placed at −70° C. for at least 30 min. […] Raw data are collected and analyzed using a 4-parameter fit equation in XLFit. IC50 values are then determined.
For the compound `CNC(=O)c1cc(Oc2ccc3[nH]c(Nc4ccc(C(F)(F)C(F)(F)F)c(OC[C@H]5CCCN5C)c4)nc3c2)ccn1` [Example 6, R-4-{2-[3-(1-Methyl-pyrrolidin-2-ylmethoxy)-4-pentafluoroethyl-phenylamino]-1H-benzimidazol-5-yloxy}-pyridine-2-carboxylic acid methylamide], the IC50 is under 0.1 µM.

On to `COc1cc2ncnc(Oc3ccc4oc(Nc5ccc(Cl)c(OC[C@@H]6CCCN6C)c5)nc4c3)c2cc1OC` [Example 263, S-[4-Chloro-3-(1-methyl-pyrrolidin-2-ylmethoxy)-phenyl]-[5-(6,7-dimethoxy-quinazolin-4-yloxy)-benzoxazol-2-yl]-amine], for which the IC50 was under 0.1 µM.

Consider `CNC(=O)c1cc(Oc2ccc3oc(Nc4ccc(Cl)c(OCC5CCN(C)CC5)c4)nc3c2)ccn1` [Example 242, 4-{2-[4-Chloro-3-(1-methylpiperidin-4-ylmethoxy)-phenylamino]-benzoxazol-5-yloxy}-pyridine-2-carboxylic acid methylamide], for which the IC50 was under 0.1 µM.

On to `COc1cc2ncnc(Oc3ccc4[nH]c(Nc5ccc(Cl)c(OCC6CCN(C)CC6)c5)nc4c3)c2cc1OC` [Example 238, [4-Chloro-3-(1-methylpiperidin-4-ylmethoxy)-phenyl]-[5-(6,7-dimethoxyquinazolin-4-yloxy)-1H-benzimidazol-2-yl]-amine], for which the IC50 is under 0.1 µM.

Consider `CN1CCC[C@H]1COc1cc(Nc2nc3cc(Oc4ccnc(C(N)=O)c4)ccc3o2)ccc1Cl` [Example 240, 4-{2-[4-Chloro-3-((2S)-1-methylpyrrolidin-2-ylmethoxy)-phenylamino]-benzoxazol-5-yloxy}-pyridine-2-carboxylic acid amide], for which the IC50 is under 0.1 µM.

In the case of `CN1CCC[C@@H]1COc1cc(Nc2nc3cc(Oc4ccnc5ccccc45)ccc3[nH]2)ccc1C(F)(F)F` [Example 29, [3-(1-Methyl-pyrrolidin-2-ylmethoxy)-4-trifluoromethyl-phenyl]-[5-(quinolin-4-yloxy)-1H-benzimidazol-2-yl]-amine], the IC50 was under 0.1 µM.

Consider `CNC(=O)c1cc(Oc2ccc3oc(Nc4ccc(Cl)c(OCCN(C)C)c4)nc3c2)ccn1` [Example 249, 4-{2-[4-Chloro-3-(2-dimethylamino-ethoxy)-phenylamino]-benzoxazol-5-yloxy}-pyridine-2-carboxylic acid methylamide], for which the IC50 was under 0.1 µM.

As to `CNC(=O)c1cc(Oc2ccc3oc(Nc4ccc(Cl)c(OC[C@@H]5CCCN5C(C)C)c4)nc3c2)ccn1` [Example 252, 4-{2-[4-Chloro-3-((2S)-1-isopropyl-pyrrolidin-2-ylmethoxy)-phenylamino]-benzooxazol-5-yloxy}-pyridine-2-carboxilic acid methylamide], the IC50 was under 0.1 µM.

With `CCN(CC)CCOc1cc(Nc2nc3cc(Oc4ccnc(C(=O)NC)c4)ccc3o2)ccc1Cl` [Example 248, 4-{2-[4-Chloro-3-(2-diethylamino-ethoxy)-phenylamino]-benzoxazol-5-yloxy}-pyridine-2-carboxylic acid methylamine], the IC50 was under 0.1 µM.

As to `CN1CCN(Cc2cc(Nc3nc4cc(Oc5ccnc6[nH]ccc56)ccc4o3)ccc2Cl)CC1` [Example 46, N-(4-Chloro-3-((4-methyl-1-piperazinyl)methyl)phenyl)-5-(1H-pyrrolo[2,3-b]pyridin-4-yloxy)-1,3-benzoxazol-2-amine], the IC50 is under 0.1 µM.

For `CNC(=O)c1cc(Oc2ccc3oc(Nc4ccc(Cl)c(CN5CCN(CCN(C)C)CC5)c4)nc3c2)ccn1` [Example 246, 4-[2-{4-Chloro-3-[4-(2-dimethylamino-ethyl)-piperazin-1-ylmethyl]-phenylamino}-benzoxazol-5-yloxy)-pyridine-2-carboxylic acid methylamide], the IC50 is under 0.1 µM.

Take `CNC(=O)c1cc(Oc2ccc3oc(Nc4ccc(C(C)C)cc4)nc3c2)ccn1` [Example 39]: the IC50 is under 0.1 µM.

Consider `CNC(=O)c1cc(Oc2ccc3[nH]c(Nc4ccc(C(F)(F)F)c(OCC5CCCN5C)c4)nc3c2)ccn1` (centres unmarked) [Example 13c], for which the IC50 is under 0.1 µM.

Turning to `CNC(=O)c1cc(Oc2ccc3oc(Nc4ccc(Br)cc4)nc3c2)ccn1` [Example 38], the IC50 was under 0.1 µM.

As for `COc1cc2nccc(Oc3ccc4oc(Nc5ccc(Cl)c(OC[C@@H]6CCCN6C)c5)nc4c3)c2cc1OC` [Example 259, S-[4-Chloro-3-(1-methylpyrrolidin-2-ylmethoxy)-phenyl]-[5-(6,7-dimethoxyquinolin-4-yloxy)-benzoxazol-2-yl]-amine], the IC50 was under 0.1 µM.

For the compound `CN1CCC[C@H]1COc1cc(Nc2nc3cc(Oc4ccnc5[nH]ccc45)ccc3o2)ccc1Cl` [Example 47, N-(4-Chloro-3-(((2S)-1-methyl-2-pyrrolidinyl)methoxy)phenyl)-5-(1H-pyrrolo[2,3-b]pyridin-4-yloxy)-1,3-benzoxazol-2-amine], the IC50 was under 0.1 µM.

For `CN(C)C1CCN(Cc2cc(Nc3nc4cc(Oc5ccnc6[nH]ccc56)ccc4o3)ccc2Cl)C1` (centres unmarked) [Example 264, [4-Chloro-3-(3-dimethylamino-pyrrolidin-1-ylmethyl)-phenyl]-[5-(1H-pyrrolo[2,3-b]pyridin-4-yloxy)-benzoxazol-2-yl]-amine], the IC50 is under 0.1 µM.

`CN1CCN(Cc2cc(Nc3nc4cc(Oc5ccnc6ccccc56)ccc4[nH]3)ccc2Cl)CC1` [Example 28, [4-Chloro-3-(4-methyl-piperazin-1-ylmethyl)-phenyl]-[5-(quinolin-4-yloxy)-1H-benzimidazol-2-yl]-amine]: the IC50 was under 0.1 µM.

Turning to `CN1CCN(Cc2cc(Nc3nc4cc(Oc5ccnc6ccccc56)cc(Cl)c4o3)ccc2Cl)CC1` [Example 257, [4-Chloro-3-(4-methyl-piperazin-1-ylmethyl)-phenyl]-[7-chloro-5-(quinolin-4-yloxy)-benzoxazol-2-yl]-amine], the IC50 is under 0.1 µM.

As for `CN1CCC(COc2cc(Nc3nc4cc(Oc5ccnc6[nH]ccc56)ccc4o3)ccc2Cl)CC1` [Example 265, [4-Chloro-3-(1-methyl-piperidin-4-ylmethoxy)-phenyl]-[5-(1H-pyrrolo[2,3-b]pyridin-4-yloxy)-benzoxazol-2-yl]-amine], the IC50 is under 0.1 µM.
